Values joined by “and” are separate entries in the source; they are usually repeats but may differ in a detail not shown here. Identical values can stand only once. “Also recorded” adds a separate entry of the source.
Experiments:
[1] = system: cultured hippocampal neurons (hippocampal networks ex vivo); experiment: Mean firing rate (MFR) of hippocampal cultures on multi-electrode arrays; format: cell-based, mouse; conditions: for network MFR after isoflurane application: isoflurane 1%, 24 hour
Method: Multi-electrode array (MEA). Postnatal hippocampal cultures were plated on MEA plates containing 120 titanium nitride (TiN) electrodes, in addition to 4 internal reference and 4 ground electrodes (Styr et al., 2019). Each electrode has a diameter of 30 μm and electrodes are arranged in a 12×12 grid (sparing 6 electrodes in each corner), spaced 100-200 μm apart on average (Multi Channel Systems, 120MEA200/30iR-Ti). Data acquisition was done in 3-weeks-old cultures using a standard MEA2100-Systems with a hardware filter cut-off of 3.3 kHz and sampling rate of 10 kHz per electrode. Recordings were carried out under constant 37° C. and 5% CO2 levels.
Data analysis: Raw data was filtered, offline, at 200 Hz using a Butterworth high-pass filter. Spikes were then detected, offline, using MC_Rack software (Multi Channel Systems) based on a fixed threshold set to between 5-6 standard deviations from mean. Twenty minutes of each hour (that were previously shown to reliably represent the MFR of the entire hour, were used for analysis to reduce processing time and analyzed using custom-written scripts in MATLAB (Mathworks) as previously described (Slomowitz et al., 2015). Channels with unstable (>30% change of MFR) baseline recordings during 3-4 hours prior to a perturbation were excluded from the analysis.

[2] = system: anesthetized APP/PS1 mice; experiment: LFP recording of epileptiform high-voltage CA1 spikes under anesthesia; format: in vivo
Method: For intracerebroventricular (ICV) ainjections, a small hole was drilled in the skull above the left lateral ventricle (0.7 mm posterior, 1.2 mm lateral to bregma), and a 5 mm guide cannula was slowly inserted into the ventricle and fixed to the skull by dental cement (C&B Metabond, Parkell). The guide cannula was sealed with a 5 mm sterile metal bar to prevent CSF leakage and possible infections. 1-2 weeks after the surgery, the mice received ICV injections using a 10 μl syringe (Hamilton). The mice were injected with 1 μl containing 27 μg of teriflunomide (TERI), dissolved in DMSO or vehicle (1 μl of DMSO) with speed of 0.15 μl/min (Nano Jet stereotaxic syringe pump).
LFP/fEPSP recordings. Small diameter holes were drilled in the skull at the position of the recording and stimulating electrodes. […] Ground electrode was screwed to the skull above the cerebellum. Test stimuli of 50-100 μA were delivered to the SC at 0.06 Hz to verify the proper location of the electrodes and to estimate the stability of the signal. The electrodes were firmly fixed to the skull by dental cement (C&B Metabond, Parkell) and dental acrylic. Operated mice recovered in their home cage for at least a week following electrodes implantation. For evoked field excitatory postsynaptic potential (fEPSP) recordings in CA3-CA1 synapses in awake mice (FIGS. 1F-1G), mice were habituated for a few days to the experimental device that was composed from a running wheel and metal bar in which the mice were head fixed into throughout the experiment with a screw. Following habituation, the mice were head fixed to the experimental device, and CA3-CA1 fEPSP measurements were taken 30 minutes after.
Ca^2+ imaging and LFP recording in anesthetized mice. For Ca^2+ imaging and LFP recording sessions during anesthesia, mice were placed in an induction chamber connected to isoflurane vaporizer (Isotec 5), gas flow rate was turned on to 0.8 LPM (litre per minute) and the vaporizer was set at 5% isoflurane. […] Respiration and heart rate were monitored and analyzed by the physiological monitoring system. […] Temperature was also maintained by the device at 37° C. throughout the procedure.
Detection of pathological spikes in fAD models. High-voltage pathological spikes were detected by setting a threshold of 10 z-scores above and below the mean voltage during the suppression epochs of the recording and accepted only if their peak-to-peak value within 30 ms was greater than 10 z-scores. A dead-time of 50 ms was set to assure the same spike was not counted twice. Subsequently, all spikes were manually inspected and approved.

[3] = system: CA3-CA1 synaptic connections in hippocampal slices; experiment: Dose-response of TERI on fEPSP amplitude in acute hippocampal slices; format: cell-based, mouse
Method: Electrophysiology in slices. Acute hippocampal slices (coronal, 400 μm) were prepared from WT and APP/PS1 mice. Slices were transferred to a submerged recovery chamber at 32° C. containing oxygenated (95% O2 and 5% CO2) artificial cerebrospinal fluid (ACSF) for 1 h before the experiment. The ACSF contained, in mM: NaCl, 125; KCl, 2.5; CaCl2, 1.2; MgCl2, 1.2; NaHCO3, 25; NaH2PO4, 1.25; glucose, 25. fEPSPs were recorded in acute hippocampal slices with a glass pipette containing Tyrode solution (1-2 MΩ) from synapses in the CA1 using a MultiClamp700B amplifier (Molecular Devices). Stimulation of the Shaffer Collateral (SC) pathway was delivered through a glass suction electrode (10-20 μm tip) filled with Tyrode. Data were analyzed using pClamp10 (Molecular Devices).

[4] = system: CA1 neuronal populations of WT and APP/PS1 mice; experiment: Ca2+ imaging of CA1 population activity under anesthesia; format: in vivo, mouse
APP/PS1 mice = experiment: Spatial working memory, delta-maze alternation test after general anesthesia; format: in vivo, mouse; conditions: 4-5-month-old APP/PS1 mice; isoflurane inhalation 1.5%, 3 hour; 10, 20 and 60 sec delays
nRE-CA1 synapses = experiment: nRE-CA1 synaptic transmission in APP/PS1 mice expressing hM4D(Gi)-mCherry; format: in vivo, mouse; conditions: data not shown

`C/C(O)=C(\C#N)C(=O)Nc1ccc(C(F)(F)F)cc1` [TERI, (2Z)-2-cyano-3-hydroxy-N-[4-(trifluoromethyl)phenyl]but-2-enamide] was tested, and the “negative regulation of MFR set points by TERI” value ([1]; APP/PS1 networks ex vivo, data not shown) was “preserved”, the “reduction in the frequency of high-voltage CA1 spikes vs baseline” value ([2]; ICV 27 μg in 1 μl, anesthetized APP/PS1 mice) was ~50% and 50.7±7.2% and the “frequency of high-voltage spikes after TERI ICV injection” value ([2]; ICV 27 μg in 1 μl, baseline 7.6±1.4 per min, n=9 anesthetized APP/PS1 mice) was 3.8±0.95 per min. The IC50 ([3]; Mus musculus, hippocampal slices of APP/PS1 mice) was 19.1 µM, the IC50 ([3]; Mus musculus, hippocampal slices of WT mice) was 17.6 µM and the IC50 ([3]; hippocampal slices of APP/PS1 mice) was 19.2 ± 1 µM.

For `COc1ccc(-c2ccc(=N)n(CCCC(=O)O)n2)cc1` [gabazine], the “MFR renormalization following 2 days of gabazine application” value ([1]; 30 μM, APP/PS1 neurons) was “disrupted”, the “population firing rate on gabazine application (acute)” value ([1]; 30 μM, WT networks) was “fast and pronounced increase” and the “MFR following 2 days of gabazine application” value ([1]; 30 μM, WT neurons) was “renormalized to the baseline level”.

In the case of `FC(F)OC(Cl)C(F)(F)F` (stereo not shown) [isoflurane], the “network MFR after isoflurane application” value ([1]; APP/PS1 cultures) is reported as 112.5±8.7 % of baseline, the “network MFR after isoflurane application” value ([1]; WT cultures) is reported as 42.0±0.9 % of baseline and the “epileptiform high-voltage spikes in CA1” value ([2]; 4-5 months old APP/PS1 mice under general anesthesia (1.5% isoflurane)) is reported as 3.22±0.51 per min. The “CA1 activity under anesthesia” value ([4]; APP/PS1 mice) was “maintained constant”, the “suppression of total CA1 activity” value ([4]; WT mice, deep anesthesia (1.5% isoflurane)) was about 87% and the “suppression of total CA1 activity” value ([4]; WT mice, moderate anesthesia (1% isoflurane)) was about 57%. For the same molecule, the “choice accuracy in delta maze following anesthesia” value (APP/PS1 mice) was “decrease in choice accuracy”.

`C[N+]1([O-])CCN(C2=Nc3cc(Cl)ccc3Nc3ccccc32)CC1` [CNO] was tested, and the “decrease in the rate of epileptiform CA1 spikes vs vehicle” value ([2]; i.p. 5 mg/kg, anesthetized APP/PS1 mice expressing hM4D(Gi)-mCherry in nRE-CA1 synapses) was about 53% and the nRE-CA1 synaptic transmission (nRE-CA1 synapses) was “suppressed”.

With `Cc1cccc(C(C)c2cnc[nH]2)c1C` (stereo not shown) [medetomidine] the “CA1 activity under anesthesia” value ([4]; APP/PS1 mice) was “much lower level of suppression” and the “CA1 activity under anesthesia” value ([4]; WT mice, data not shown) was “pronounced inhibition of CA1 activity”.

`NCC(CC(=O)O)c1ccc(Cl)cc1` (stereo not shown) [baclofen] was tested, and the “MFR homeostatic response to chronic inactivity” value ([1]; baclofen 10 μM, WT and APP/PS1 networks, first day of perturbation) was “homeostatically compensated”.

`NC1=N[C@H](O)[C@H]2[C@H]3O[C@]4(O)O[C@@H]([C@@H](O)[C@@]2(N1)[C@@H]4O)[C@]3(O)CO` [TTX, tetrodotoxin] was tested, and the “rate of epileptiform CA1 spikes vs baseline” value ([2]; mouse, in vivo) was “profound decrease; also recorded: reduction”.

Reference: patent US20240325760A1, “METHODS FOR DETECTING AND PREVENTING ALZHEIMER'S DISEASE AND MILD COGNITIVE IMPAIRMENT” (RAMOT AT TEL-AVIV UNIVERSITY LTD., priority 2021, published 2024)
